Measured values reported in PubChem BioAssay AID248 (DTP/NCI, 2004).
Several values for one entry are separate records, joined by “and”; a condition that tells them apart may be missing. Identical values can stand only once. Toxic doses and inconclusive results are not listed. Rule as the data show it: active = T/C of 150% or more; inactive = T/C below 125%.

Tested on: L1210 leukemia ip in BDF1 mice, survival T/C
Experiment: NCI In Vivo Anticancer Drug Screen. Data for tumor model L1210 Leukemia (intraperitoneal) in B6D2F1 (BDF1) mice
Details: endpoint: mean survival time, higher = longer survival
Summary of the method: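 Mice bearing the transplanted tumor received compound or vehicle. Survival of the treated group was divided by that of the vehicle-treated control group to give the ratio.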

[1] = dose: 100.0 mg/kg/injection, schedule: Q04DX003 (ip), vehicle: Klucel (hydroxypropylcellulose) (HPC)
[2] = dose: 200.0 mg/kg/injection, schedule: Q04DX003 (ip), vehicle: Klucel (hydroxypropylcellulose) (HPC)
[3] = dose: 400.0 mg/kg/injection, schedule: Q04DX003 (ip), vehicle: Klucel (hydroxypropylcellulose) (HPC)
[4] = dose: 100.0 mg/kg/injection, schedule: Q01DX009 (ip), vehicle: Klucel (hydroxypropylcellulose) (HPC)
[5] = dose: 100.0 mg/kg/injection, schedule: Q01DX001 (ip), vehicle: Klucel (hydroxypropylcellulose) (HPC)
[6] = dose: 200.0 mg/kg/injection, schedule: Q01DX001 (ip), vehicle: Klucel (hydroxypropylcellulose) (HPC)
[7] = dose: 400.0 mg/kg/injection, schedule: Q01DX001 (ip), vehicle: Klucel (hydroxypropylcellulose) (HPC)
[8] = dose: 100.0 mg/kg/injection, schedule: Q04DX002 (ip), vehicle: saline with Tween-80
[9] = dose: 100.0 mg/kg/injection, schedule: Q04DX003 (ip), vehicle: saline with Tween-80
[10] = dose: 200.0 mg/kg/injection, schedule: Q04DX002 (ip), vehicle: saline with Tween-80
[11] = dose: 200.0 mg/kg/injection, schedule: Q04DX003 (ip), vehicle: saline with Tween-80
[12] = dose: 400.0 mg/kg/injection, schedule: Q04DX002 (ip), vehicle: saline with Tween-80
[13] = dose: 400.0 mg/kg/injection, schedule: Q04DX003 (ip), vehicle: saline with Tween-80
[14] = dose: 50.0 mg/kg/injection, schedule: Q01DX009 (ip), vehicle: saline
[15] = dose: 75.0 mg/kg/injection, schedule: Q01DX001 (ip), vehicle: saline
[16] = dose: 150.0 mg/kg/injection, schedule: Q01DX001 (ip), vehicle: saline
[17] = dose: 300.0 mg/kg/injection, schedule: Q01DX001 (ip), vehicle: saline

Measured: T/C

O=C(N/N=C/c1ccc2c(c1)CCC2)c1cccc(O)c1
inactive: [1] 96 % of control | [2] 95 % of control | [3] 91 % of control

O=C(SCCSC(=O)c1ccccc1)c1ccccc1
inactive: dose: 75.0 mg/kg/injection, schedule: Q04DX003 (ip), vehicle: other 98 % of control | dose: 150.0 mg/kg/injection, schedule: Q04DX003 (ip), vehicle: other 106 % of control | dose: 300.0 mg/kg/injection, schedule: Q04DX003 (ip), vehicle: other 112 % of control

CCOC(=O)C1=C(C)NC(=O)NC1c1ccc(N(CCCl)CCCl)cc1Cl (configuration not stated)
inactive: dose: 25.0 mg/kg/injection, schedule: Q01DX009 (ip), vehicle: Klucel (hydroxypropylcellulose) (HPC) 102 % of control | dose: 50.0 mg/kg/injection, schedule: Q01DX009 (ip), vehicle: Klucel (hydroxypropylcellulose) (HPC) 98 % of control | [4] 111 % of control

N#CCCOP(=O)(O)O
inactive: [5] 101 % of control | [6] 98 % of control | [7] 88 % of control

O=C(Nc1ccc(Cl)cc1[N+](=O)[O-])Oc1ccc(-c2ccccc2)cc1
inactive: dose: 100.0 mg/kg/injection, schedule: Q01DX001 (ip), vehicle: saline with Tween-80 97 % of control | dose: 100.0 mg/kg/injection, schedule: Q01DX009 (ip), vehicle: saline with Tween-80 94 % of control and 103 % of control | [8] 97 % of control and 91 % of control | [9] 108 % of control | dose: 200.0 mg/kg/injection, schedule: Q01DX001 (ip), vehicle: saline with Tween-80 100 % of control | dose: 200.0 mg/kg/injection, schedule: Q01DX009 (ip), vehicle: saline with Tween-80 92 % of control | [10] 102 % of control and 90 % of control | [11] 107 % of control | dose: 400.0 mg/kg/injection, schedule: Q01DX001 (ip), vehicle: saline with Tween-80 89 % of control | dose: 400.0 mg/kg/injection, schedule: Q01DX009 (ip), vehicle: saline with Tween-80 106 % of control and 92 % of control | [12] 103 % of control and 91 % of control | [13] 95 % of control

O=C1CCCCCC1c1ccccc1 (configuration not stated)
inactive: [9] 98 % of control | [11] 96 % of control | [13] 106 % of control

Cc1cc(C)c(F)c(-c2c(N)c(C)cc(C)c2F)c1N
inactive: dose: 50.0 mg/kg/injection, schedule: Q01DX001 (ip), vehicle: Klucel (hydroxypropylcellulose) (HPC) 106 % of control | [5] 101 % of control | [6] 96 % of control

Cc1c2cnccc2c(C)c2c1c1ccccc1n2CCCN
inactive: dose: 6.25 mg/kg/injection, schedule: Q04DX003 (ip), vehicle: saline 97 % of control | dose: 12.5 mg/kg/injection, schedule: Q04DX003 (ip), vehicle: saline 97 % of control | dose: 25.0 mg/kg/injection, schedule: Q01DX001 (oral), vehicle: saline 96 % of control | dose: 25.0 mg/kg/injection, schedule: Q04DX003 (ip), vehicle: saline 89 % of control | dose: 50.0 mg/kg/injection, schedule: Q01DX001 (oral), vehicle: saline 100 % of control | dose: 75.0 mg/kg/injection, schedule: Q01DX001 (oral), vehicle: saline 105 % of control | dose: 100.0 mg/kg/injection, schedule: Q01DX001 (oral), vehicle: saline 86 % of control | dose: 200.0 mg/kg/injection, schedule: Q01DX001 (oral), vehicle: saline 96 % of control

FCc1nc2nc(Cl)c(Cl)nc2[nH]1
inactive: dose: 12.5 mg/kg/injection, schedule: Q01DX009 (ip), vehicle: saline 100 % of control | dose: 25.0 mg/kg/injection, schedule: Q01DX009 (ip), vehicle: saline 96 % of control | [14] 88 % of control | dose: 100.0 mg/kg/injection, schedule: Q04DX003 (ip), vehicle: saline 97 % of control | dose: 200.0 mg/kg/injection, schedule: Q04DX003 (ip), vehicle: saline 97 % of control

COc1cccc(N=C(N)N=C(N)N)c1
inactive: [15] 101 % of control | [16] 101 % of control | [17] 107 % of control

COc1ccc2ccccc2c1C(=O)CCC(=O)O
inactive: dose: 87.0 mg/kg/injection, schedule: Q04DX003 (ip), vehicle: Klucel (hydroxypropylcellulose) (HPC) 97 % of control | dose: 175.0 mg/kg/injection, schedule: Q04DX003 (ip), vehicle: Klucel (hydroxypropylcellulose) (HPC) 93 % of control | dose: 350.0 mg/kg/injection, schedule: Q04DX003 (ip), vehicle: Klucel (hydroxypropylcellulose) (HPC) 102 % of control

Cc1ccc(N=Cc2cccc([N+](=O)[O-])c2)cc1
inactive: [5] 100 % of control | [1] 98 % of control | [6] 94 % of control | [2] 100 % of control | [7] 91 % of control | [3] 103 % of control

CCCCCCCCCCCCCC(=O)OCC(C)C
inactive: dose: 222.0 mg/kg/injection, schedule: Q01DX Z (ip), vehicle: saline 94 % of control | dose: 333.0 mg/kg/injection, schedule: Q01DX Z (ip), vehicle: saline 90 % of control | dose: 500.0 mg/kg/injection, schedule: Q01DX Z (ip), vehicle: saline 94 % of control

Cc1ccc(C(C)C)c(OCC2=NCCN2C)c1
inactive: [14] 100 % of control | dose: 100.0 mg/kg/injection, schedule: Q01DX009 (ip), vehicle: saline 98 % of control | dose: 200.0 mg/kg/injection, schedule: Q01DX009 (ip), vehicle: saline 115 % of control

O=C(Nc1ccccc1)C(CCCN1C(=O)c2ccccc2C1=O)N1C(=O)c2ccccc2C1=O (configuration not stated)
inactive: [15] 100 % of control | [16] 104 % of control | [17] 96 % of control

COC(=O)c1ccccc1N(Cc1ccc(OC)c(OC)c1)S(=O)(=O)c1ccc(C)cc1
inactive: dose: 100.0 mg/kg/injection, schedule: Q01DX001 (ip), vehicle: saline 95 % of control | dose: 200.0 mg/kg/injection, schedule: Q01DX001 (ip), vehicle: saline 91 % of control | dose: 400.0 mg/kg/injection, schedule: Q01DX001 (ip), vehicle: saline 91 % of control

O=P(NC1CCCCC1)(NC1CCCCC1)c1ccccc1
inactive: dose: 100.0 mg/kg/injection, schedule: Q04DX002 (ip), vehicle: gum acacia 104 % of control | dose: 200.0 mg/kg/injection, schedule: Q04DX002 (ip), vehicle: gum acacia 93 % of control | dose: 400.0 mg/kg/injection, schedule: Q04DX002 (ip), vehicle: gum acacia 96 % of control

COc1cc(N)c2c(c1O)CN(C)CC2
inactive: [15] 95 % of control | [16] 100 % of control | [17] 86 % of control

CCOC(=O)c1cc([N+](=O)[O-])oc1C
inactive: [4] 102 % of control | [1] 98 % of control | dose: 200.0 mg/kg/injection, schedule: Q01DX009 (ip), vehicle: Klucel (hydroxypropylcellulose) (HPC) 102 % of control | [2] 94 % of control | dose: 400.0 mg/kg/injection, schedule: Q01DX009 (ip), vehicle: Klucel (hydroxypropylcellulose) (HPC) 112 % of control | [3] 100 % of control

CC12CCC(=O)C=C1CCC1C2CCC2(C)C(OC(=O)c3ccc(N)cc3)CCC12 (configuration not stated)
inactive: [8] 94 % of control | [10] 91 % of control | [12] 94 % of control
